# Laboratory results as given in PMC8524670 (Pharmacology Research & Perspectives, 2021).
# Experiments:
# [1] = In vitro metabolism in liver microsomes; format: in vitro ADME; conditions: 10 μM, 60-min incubation with NADPH and UDPGA; 11 metabolites (M1–M11)
# OATP1B3 = biological target: T1, OATP1B3 (Homo sapiens, UniProt Q9NPD5); assay: SLC transportation assay in HEK293 cells; format: in vitro ADME; conditions: uptake ratios <2 at 0.1, 0.3, 5 µM
# T1 sequence (Q9NPD5 1-702): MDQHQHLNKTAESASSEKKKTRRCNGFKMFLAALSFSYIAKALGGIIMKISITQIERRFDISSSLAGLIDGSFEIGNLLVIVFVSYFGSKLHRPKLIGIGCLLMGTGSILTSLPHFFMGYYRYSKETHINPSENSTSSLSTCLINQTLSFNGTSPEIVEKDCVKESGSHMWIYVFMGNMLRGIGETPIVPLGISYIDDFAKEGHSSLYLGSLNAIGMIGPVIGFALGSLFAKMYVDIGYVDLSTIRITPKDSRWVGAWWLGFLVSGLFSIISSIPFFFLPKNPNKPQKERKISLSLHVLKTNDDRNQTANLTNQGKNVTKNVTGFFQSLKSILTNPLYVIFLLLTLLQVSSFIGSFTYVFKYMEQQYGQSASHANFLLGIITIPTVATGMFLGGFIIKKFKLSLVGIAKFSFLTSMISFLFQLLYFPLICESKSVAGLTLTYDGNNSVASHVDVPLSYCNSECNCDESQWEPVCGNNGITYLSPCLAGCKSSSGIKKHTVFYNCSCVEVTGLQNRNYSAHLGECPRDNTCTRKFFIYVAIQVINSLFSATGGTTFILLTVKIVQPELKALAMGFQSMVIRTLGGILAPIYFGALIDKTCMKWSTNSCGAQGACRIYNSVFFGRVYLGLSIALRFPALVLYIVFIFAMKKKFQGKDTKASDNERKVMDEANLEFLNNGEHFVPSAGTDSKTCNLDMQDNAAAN
# CYP2C8 = biological target: T2, CYP2C8 (Homo sapiens, UniProt P10632); assay: CYP reversible inhibition in HLMs; conditions: amodiaquine
# T2 sequence (P10632 1-490): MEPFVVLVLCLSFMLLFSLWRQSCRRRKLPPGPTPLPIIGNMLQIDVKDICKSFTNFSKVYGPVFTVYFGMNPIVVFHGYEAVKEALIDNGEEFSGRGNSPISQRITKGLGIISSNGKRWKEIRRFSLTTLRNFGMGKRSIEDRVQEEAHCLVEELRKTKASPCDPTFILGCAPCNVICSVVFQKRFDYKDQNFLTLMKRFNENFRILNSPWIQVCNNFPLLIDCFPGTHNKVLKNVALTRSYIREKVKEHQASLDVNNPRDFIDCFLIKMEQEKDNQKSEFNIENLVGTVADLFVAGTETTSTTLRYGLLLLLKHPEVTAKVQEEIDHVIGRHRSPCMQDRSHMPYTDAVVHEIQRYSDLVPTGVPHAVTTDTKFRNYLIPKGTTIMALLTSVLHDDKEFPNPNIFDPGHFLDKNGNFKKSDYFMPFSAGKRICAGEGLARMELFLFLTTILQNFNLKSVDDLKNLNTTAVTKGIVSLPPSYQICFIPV
# CYP2D6 [2] = biological target: T3, CYP2D6 (Homo sapiens, UniProt P10635); assay: Time-dependent CYP inhibition in HLMs; conditions: 10 µM zanubrutinib, 30 min pre-incubation with HLMs and NADPH
# T3 sequence (P10635 whole entry): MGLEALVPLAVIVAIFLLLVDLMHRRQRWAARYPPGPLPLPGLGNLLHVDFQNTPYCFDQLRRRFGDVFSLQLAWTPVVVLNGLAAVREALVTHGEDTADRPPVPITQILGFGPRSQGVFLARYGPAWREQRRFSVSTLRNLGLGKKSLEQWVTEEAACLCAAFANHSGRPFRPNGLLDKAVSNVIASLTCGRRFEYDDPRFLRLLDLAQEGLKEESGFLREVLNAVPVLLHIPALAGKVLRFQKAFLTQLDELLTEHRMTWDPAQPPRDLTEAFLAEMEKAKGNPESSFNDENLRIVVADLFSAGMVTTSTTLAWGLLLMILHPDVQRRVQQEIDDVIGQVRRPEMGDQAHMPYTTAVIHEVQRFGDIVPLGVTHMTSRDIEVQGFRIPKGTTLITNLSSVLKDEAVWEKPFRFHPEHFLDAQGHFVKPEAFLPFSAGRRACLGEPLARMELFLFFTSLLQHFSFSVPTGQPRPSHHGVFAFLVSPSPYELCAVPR
# CYP2D6 [3] = biological target: T3, CYP2D6; assay: CYP reversible inhibition in HLMs; format: in vitro ADME
# human BCRP = biological target: T4, human BCRP (Homo sapiens, UniProt Q9UNQ0); assay: BCRP transportation in inside-out vesicles; format: in vitro ADME; conditions: uptake ratio ≥2-fold indicates substrate
# T4 sequence (Q9UNQ0 1-655): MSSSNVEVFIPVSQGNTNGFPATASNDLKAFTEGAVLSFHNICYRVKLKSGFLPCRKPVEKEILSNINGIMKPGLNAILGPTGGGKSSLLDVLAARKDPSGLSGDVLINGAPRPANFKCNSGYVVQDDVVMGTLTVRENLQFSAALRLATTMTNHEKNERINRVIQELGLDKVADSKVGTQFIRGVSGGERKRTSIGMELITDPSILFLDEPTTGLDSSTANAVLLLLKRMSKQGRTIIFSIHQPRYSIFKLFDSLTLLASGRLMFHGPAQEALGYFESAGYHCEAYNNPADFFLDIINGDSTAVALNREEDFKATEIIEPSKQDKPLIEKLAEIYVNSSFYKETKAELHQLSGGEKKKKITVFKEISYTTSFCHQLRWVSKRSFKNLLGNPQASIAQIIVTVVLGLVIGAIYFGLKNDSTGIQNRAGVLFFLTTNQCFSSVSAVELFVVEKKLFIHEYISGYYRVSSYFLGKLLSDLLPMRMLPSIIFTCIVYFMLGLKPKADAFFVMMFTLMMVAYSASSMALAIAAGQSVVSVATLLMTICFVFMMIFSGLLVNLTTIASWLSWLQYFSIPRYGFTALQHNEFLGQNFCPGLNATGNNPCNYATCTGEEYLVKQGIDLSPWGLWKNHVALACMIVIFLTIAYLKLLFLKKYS
# P-gp = P-gp (Homo sapiens, UniProt P08183); assay: P-gp transportation in MDCK-MDR1 cells; format: in vitro ADME
# Sequence of P-gp (P08183 whole entry): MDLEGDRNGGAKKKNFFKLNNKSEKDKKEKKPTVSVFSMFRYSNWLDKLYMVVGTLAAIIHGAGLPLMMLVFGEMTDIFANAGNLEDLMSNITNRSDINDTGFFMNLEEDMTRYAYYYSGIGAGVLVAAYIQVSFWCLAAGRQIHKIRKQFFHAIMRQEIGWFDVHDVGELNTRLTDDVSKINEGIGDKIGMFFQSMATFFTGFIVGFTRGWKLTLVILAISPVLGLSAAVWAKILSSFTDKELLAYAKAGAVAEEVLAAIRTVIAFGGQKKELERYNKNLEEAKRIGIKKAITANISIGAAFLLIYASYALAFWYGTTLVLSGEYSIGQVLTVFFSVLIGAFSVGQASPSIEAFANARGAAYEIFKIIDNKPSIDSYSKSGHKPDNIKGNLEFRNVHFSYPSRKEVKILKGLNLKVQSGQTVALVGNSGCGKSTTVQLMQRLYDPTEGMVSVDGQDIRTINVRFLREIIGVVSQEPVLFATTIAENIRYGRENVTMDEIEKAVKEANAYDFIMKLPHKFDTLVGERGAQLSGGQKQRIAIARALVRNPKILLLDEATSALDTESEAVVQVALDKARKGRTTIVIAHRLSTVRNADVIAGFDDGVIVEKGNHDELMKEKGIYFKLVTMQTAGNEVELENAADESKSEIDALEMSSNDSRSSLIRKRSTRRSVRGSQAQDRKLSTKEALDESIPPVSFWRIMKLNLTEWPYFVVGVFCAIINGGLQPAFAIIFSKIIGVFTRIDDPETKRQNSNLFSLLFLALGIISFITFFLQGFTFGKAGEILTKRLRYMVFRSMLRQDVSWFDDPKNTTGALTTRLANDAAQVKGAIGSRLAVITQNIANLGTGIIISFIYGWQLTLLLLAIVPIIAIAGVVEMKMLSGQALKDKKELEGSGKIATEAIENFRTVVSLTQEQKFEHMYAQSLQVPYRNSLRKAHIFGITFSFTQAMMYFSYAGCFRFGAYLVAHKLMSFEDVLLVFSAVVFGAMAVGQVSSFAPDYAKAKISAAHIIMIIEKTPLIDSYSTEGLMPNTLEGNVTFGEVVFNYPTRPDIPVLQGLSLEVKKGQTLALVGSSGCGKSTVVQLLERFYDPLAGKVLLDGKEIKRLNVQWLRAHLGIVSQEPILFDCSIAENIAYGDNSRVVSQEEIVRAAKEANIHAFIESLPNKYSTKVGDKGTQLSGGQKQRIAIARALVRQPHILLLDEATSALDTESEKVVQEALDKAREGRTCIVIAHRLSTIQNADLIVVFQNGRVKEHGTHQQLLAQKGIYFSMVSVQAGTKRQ
# OCT2 = biological target: T5, OCT2 (Homo sapiens, UniProt O15244); assay: SLC transportation assay in HEK293 cells; format: in vitro ADME; conditions: uptake ratios <2 at 0.1, 0.3, 5 µM
# T5 sequence (O15244 1-555): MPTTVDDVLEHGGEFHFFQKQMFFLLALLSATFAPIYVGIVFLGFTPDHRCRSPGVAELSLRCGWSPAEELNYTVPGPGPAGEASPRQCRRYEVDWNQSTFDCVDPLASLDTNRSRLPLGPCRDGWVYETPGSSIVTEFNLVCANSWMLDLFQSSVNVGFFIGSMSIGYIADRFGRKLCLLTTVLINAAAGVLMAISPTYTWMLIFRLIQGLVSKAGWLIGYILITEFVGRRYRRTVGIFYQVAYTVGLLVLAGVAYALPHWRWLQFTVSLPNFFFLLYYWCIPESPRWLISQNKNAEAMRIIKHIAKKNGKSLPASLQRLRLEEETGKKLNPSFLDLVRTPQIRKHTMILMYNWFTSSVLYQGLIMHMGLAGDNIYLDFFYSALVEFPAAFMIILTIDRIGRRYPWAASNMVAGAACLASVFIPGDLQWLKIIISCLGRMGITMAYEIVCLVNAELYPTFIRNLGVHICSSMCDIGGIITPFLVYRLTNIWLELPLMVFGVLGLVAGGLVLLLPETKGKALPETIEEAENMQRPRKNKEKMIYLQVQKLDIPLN
smiles,measurement,setting,value
C=CC(=O)N1CCC([C@@H]2CCNc3c(C(N)=O)c(-c4ccc(Oc5ccccc5)cc4)nn32)CC1 [zanubrutinib],Metabolism in liver microsomes,[1],extensively metabolized
same,Substrate status,OATP1B3,unlikely to be a substrate
same,R1,"CYP2C8; DDI basic model, hepatic",1.05
same,Ah,"CYP2C8; static model term, liver inhibition",0.95
same,Percent loss of enzymatic activity,CYP2D6 [2],−14.6%
same,IC50,CYP2D6 [3],72.9 µM
same,Ki,"CYP2D6 [3]; Ki, dextromethorphan, Ki = IC50/2",36.5 µM
same,Ki,"CYP2D6 [3]; Kiu, dextromethorphan, unbound Ki",28.8 µM
same,R1,"CYP2D6 [3]; dextromethorphan, DDI basic model, hepatic",1.00
same,Ah,"CYP2D6 [3]; dextromethorphan, static model term, liver inhibition",1.00
same,BCRP substrate status,human BCRP,unlikely to be a substrate
same,"Papp A→B at 90 min, 1 µM","P-gp; dog, MDCK-MDR1",9.16 ± 0.1 ×10⁻⁶ cm/s
same,"Papp A→B at 90 min, 10 µM","P-gp; dog, MDCK-MDR1",21.9 ± 0.049 ×10⁻⁶ cm/s
same,"Papp B→A at 90 min, 1 µM","P-gp; dog, MDCK-MDR1",31.7 ± 0.12 ×10⁻⁶ cm/s
same,"Papp B→A at 90 min, 10 µM","P-gp; dog, MDCK-MDR1",47.9 ± 0.094 ×10⁻⁶ cm/s
same,P-gp substrate status,P-gp; efflux ratio >2 indicates substrate,potential P‐gp substrate
same,Substrate status,OCT2,unlikely to be a substrate
